Assays:
Format in all cases: cell-based
RS4;11-BCL-2 F104L cells = test: Cell proliferation assay (MTS), RS4;11-BCL-2 F104L engineered cells; conditions: Homo sapiens, 120 h, read-out: RS4, 11 BCL2-F104L IC50
From the text: MTS testing kit was purchased from Promega (Madison, WI, USA). The RPMI-1640, Fetal bovine serum and Penicillin-Streptomycin were purchased from BI (Biological Industries, Beit Haemek, Israel). Puromycin was purchased from Beyotime (shanghai, China). Dimethyl sulfoxide (DMSO) was purchased from Sigma (St. Louis., MO, USA). RS4;11-BCL-2 G101V (Cobioer Lot. #: CBD2021063013P4), RS4;11-BCL-2 D103E (Cobioer Lot. #: CBD2021063013P4), RS4;11-BCL-2 D103Y (Cobioer Lot. #: CBD2022012101P4) and RS4;11-BCL-2 F104L (Cobioer Lot. #: CBD2021063014P4) cells were cultured in RPMI1640 supplemented with 1 ug/mL puromycin, 100 U/mL Penicillin-Streptomycin and 10% FBS.
To investigate whether a compound is able to inhibit the activity of BCL-2 mutation in cells, a mechanism-based assay using engineered cell lines stably overexpressing BCL-2 mutation (RS4;11-BCL-2 G101V, RS4;11-BCL-2 D103E, RS4;11-BCL-2 D103Y, and RS4;11-BCL-2 F104L) was developed. In this assay, the inhibition of BCL-2 mutation was reflected by the inhibition of cell proliferation of engineered RS4;11 cells. Cells were plated into 96-well plates at optimized cell density (RS4;11-BCL-2 G101V: 5000 cells/well; RS4;11-BCL-2 D103E: 7500 cells/well; RS4;11-BCL-2 D103Y: 7500 cells/well; RS4;11-BCL-2 F104L: 5000 cells/well). Plates were incubated at 37° C., with 5% CO2 for 4 h (RS4;11-BCL-2 G101V, RS4;11-BCL-2 F104L) and 24 h (RS4;11-BCL-2 D103E, RS4;11-BCL-2 D103Y), respectively. Compounds were serially diluted and added to the plates with the final concentrations of 10000, 3333.3, 1111.1, 370.4, 123.5, 41.2, 13.7, 4.6 and 1.5 nM. Plates were incubated at 37° C., with 5% CO2 for 120 h (RS4; 11-BCL-2 G101V, RS4; 11-BCL-2 F104L) and 72 h (RS4;11-BCL-2 D103E, RS4;11-BCL-2 D103Y), respectively. 20 μl MTS was added into each well and the plates were incubated at 37° C., with 5% CO2 exactly for 2 h. The absorbance was measured by a microplate reader at 490 nm. IC50 values were calculated using GraphPad Prism 8.0 software.

RS4;11-BCL-2 G101V cells = test: Cell proliferation assay (MTS), RS4;11-BCL-2 G101V engineered cells; conditions: Homo sapiens, 120 h, read-out: RS4, 11 BCL2-G101V IC50
Procedure, shortened: (§1)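 RS4;11 cells stably overexpressing mutant BCL-2 were seeded and pre-incubated 4 h (G101V, F104L) or 24 h (D103E, D103Y), then exposed to compound at 1.5–10000 nM for 120 h (G101V, F104L) or 72 h (D103E, D103Y) at 37 °C. Viability was read by MTS absorbance at 490 nm after 2 h; IC50 fitted.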

RS4;11-BCL-2 D103E cells = test: Cell proliferation assay (MTS), RS4;11-BCL-2 D103E engineered cells; conditions: Homo sapiens, 72 h, read-out: RS4, 11 BCL2-D103E IC50
Procedure, shortened: as §1

Toledo cells = test: Cell proliferation assay (MTS), Toledo cells; conditions: Homo sapiens, 72 h
Procedure, shortened: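 Toledo cells (RPMI-1640, 10% FBS) seeded at 30000 cells/well, rested 4 h, then exposed 72 h at 37 °C, 5% CO2 to compound at nine final concentrations, 1.5–10000 nM. Viability by MTS (2 h), absorbance at 490 nm. IC50 from the concentration-response.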

IC50 (RS4;11-BCL-2 F104L cells) [nM] | IC50 (RS4;11-BCL-2 G101V cells) [nM] | IC50 (RS4;11-BCL-2 D103E cells) [nM] | Compound | IC50 (Toledo cells) [nM]
1 | – | – | COc1cc(CN2CCC(N3CC4(CCN(c5ccc(C(=O)NS(=O)(=O)c6cnc(NC[C@H]7CC[C@](C)(O)CC7)c([N+](=O)[O-])c6)c(Oc6cc7c(F)c[nH]c7nc6OC)c5)CC4)C3)[C@H](c3ccccc3C(C)C)C2)ccn1 (single isomer, unassigned) [Example 363, 2-((3-fluoro-6-methoxy-1H-pyrrolo[2,3-b]pyridin-5-yl)oxy)-N-((6-((((1r,4r)-4-hydroxy-4-methylcyclohexyl)methyl)amino)-5-nitropyridin-3-yl)sulfonyl)-4-(2-(3-(2-isopropylphenyl)-1-((2-methoxypyridin-4-yl)methyl)piperidin-4-yl)-2,7-diazaspiro[3.5]nonan-7-yl)benzamide] | –
1 | – | – | COc1ccc(CN2CCC(N3CC4(CCN(c5ccc(C(=O)NS(=O)(=O)c6cnc(NC[C@H]7CC[C@](C)(O)CC7)c([N+](=O)[O-])c6)c(Oc6cc7c(F)c[nH]c7nc6OC)c5)CC4)C3)C(c3ccccc3C(C)C)C2)cc1 (stereo partly drawn) [Example 19, 2-((3-fluoro-6-methoxy-1H-pyrrolo[2,3-b]pyridin-5-yl)oxy)-N-((6-((((1r,4r)-4-hydroxy-4-methylcyclohexyl)methyl)amino)-5-nitropyridin-3-yl)sulfonyl)-4-(2-(3-(2-isopropylphenyl)-1-(4-methoxybenzyl)piperidin-4-yl)-2,7-diazaspiro[3.5]nonan-7-yl)benzamide] | –
3 | – | – | CCOc1nc2[nH]cc(F)c2cc1Oc1cc(N2CCC3(CC2)CN(C2CCN(Cc4ccc(OC)cc4)CC2c2ccccc2C(C)C)C3)ccc1C(=O)NS(=O)(=O)c1cnc(NC[C@H]2CC[C@](C)(O)CC2)c([N+](=O)[O-])c1 (stereo partly drawn) [Example 20, 2-((6-ethoxy-3-fluoro-1H-pyrrolo[2,3-b]pyridin-5-yl)oxy)-N-((6-((((1r,4r)-4-hydroxy-4-methylcyclohexyl)methyl)amino)-5-nitropyridin-3-yl)sulfonyl)-4-(2-(3-(2-isopropylphenyl)-1-(4-methoxybenzyl)piperidin-4-yl)-2,7-diazaspiro[3.5]nonan-7-yl)benzamide] | –
1 | 1 | – | COc1cc(CN2CCN(C3CC4(CCN(c5ccc(C(=O)NS(=O)(=O)c6cnc(NC[C@H]7CC[C@](C)(O)CC7)c([N+](=O)[O-])c6)c(Oc6cc7c(F)c[nH]c7nc6OC)c5)CC4)C3)[C@H](c3ccccc3C(C)C)C2)cc(C)n1 [Example 55, 2-((3-fluoro-6-methoxy-1H-pyrrolo[2,3-b]pyridin-5-yl)oxy)-N-((6-((((1r,4r)-4-hydroxy-4-methylcyclohexyl)methyl)amino)-5-nitropyridin-3-yl)sulfonyl)-4-(2-((R)-2-(2-isopropylphenyl)-4-((2-methoxy-6-methylpyridin-4-yl)methyl)piperazin-1-yl)-7-azaspiro[3.5]nonan-7-yl)benzamide] | –
3 | 2 | – | COc1cc(CN2CCN(C3CC4(CCN(c5ccc(C(=O)NS(=O)(=O)c6cnc(NC[C@H]7CC[C@](C)(O)CC7)c([N+](=O)[O-])c6)c(Oc6cc7c(F)c[nH]c7nc6OC)c5)CC4)C3)[C@H](c3ccccc3C(C)C)C2)cc(C#N)n1 [Example 56, 4-(2-((R)-4-((2-cyano-6-methoxypyridin-4-yl)methyl)-2-(2-isopropylphenyl)piperazin-1-yl)-7-azaspiro[3.5]nonan-7-yl)-2-((3-fluoro-6-methoxy-1H-pyrrolo[2,3-b]pyridin-5-yl)oxy)-N-((6-((((1r,4r)-4-hydroxy-4-methylcyclohexyl)methyl)amino)-5-nitropyridin-3-yl)sulfonyl)benzamide] | –
1 | 1 | – | COc1cc(CN2CCN(C3CC4(CCN(c5ccc(C(=O)NS(=O)(=O)c6cnc(NC[C@H]7CC[C@](C)(O)CC7)c([N+](=O)[O-])c6)c(Oc6cc7c(F)c[nH]c7nc6OC)c5)CC4)C3)[C@H](c3ccccc3C(C)C)C2)cc(N)n1 [Example 57, 4-(2-((R)-4-((2-amino-6-methoxypyridin-4-yl)methyl)-2-(2-isopropylphenyl)piperazin-1-yl)-7-azaspiro[3.5]nonan-7-yl)-2-((3-fluoro-6-methoxy-1H-pyrrolo[2,3-b]pyridin-5-yl)oxy)-N-((6-((((1r,4r)-4-hydroxy-4-methylcyclohexyl)methyl)amino)-5-nitropyridin-3-yl)sulfonyl)benzamide] | –
1 | – | – | COc1ccc(CN2CCN(C3CC4(CCN(c5ccc(C(=O)NS(=O)(=O)c6cnc(NC[C@H]7CC[C@](C)(O)CC7)c([N+](=O)[O-])c6)c(Oc6cnc7[nH]ccc7c6)c5)CC4)C3)[C@H](c3ccccc3C(C)C)C2)cc1 [Example 61, 2-((1H-pyrrolo[2,3-b]pyridin-5-yl)oxy)-N-((6-((((1r,4r)-4-hydroxy-4-methylcyclohexyl)methyl)amino)-5-nitropyridin-3-yl)sulfonyl)-4-(2-((R)-2-(2-isopropylphenyl)-4-(4-methoxybenzyl)piperazin-1-yl)-7-azaspiro[3.5]nonan-7-yl)benzamide] | –
1 | – | – | CCOc1nc2[nH]cc(F)c2cc1Oc1cc(N2CCC3(CC2)CC(N2CCOC[C@H]2c2ccccc2C(C)C)C3)ccc1C(=O)NS(=O)(=O)c1cnc(NC[C@H]2CC[C@](C)(O)CC2)c([N+](=O)[O-])c1 [Example 88, 2-((6-ethoxy-3-fluoro-1H-pyrrolo[2,3-b]pyridin-5-yl)oxy)-N-((6-((((1r,4r)-4-hydroxy-4-methylcyclohexyl)methyl)amino)-5-nitropyridin-3-yl)sulfonyl)-4-(2-((R)-3-(2-isopropylphenyl)morpholino)-7-azaspiro[3.5]nonan-7-yl)benzamide] | –
1 | – | – | CCOc1nc2[nH]cc(F)c2cc1Oc1cc(N2CCC3(CC2)CC(N2CCC[C@H]2c2ccccc2C(C)C)C3)ccc1C(=O)NS(=O)(=O)c1cnc(NC[C@H]2CC[C@](C)(O)CC2)c([N+](=O)[O-])c1 [Example 90, 2-((6-ethoxy-3-fluoro-1H-pyrrolo[2,3-b]pyridin-5-yl)oxy)-N-((6-((((1r,4r)-4-hydroxy-4-methylcyclohexyl)methyl)amino)-5-nitropyridin-3-yl)sulfonyl)-4-(2-((S)-2-(2-isopropylphenyl)pyrrolidin-1-yl)-7-azaspiro[3.5]nonan-7-yl)benzamide] | –
– | 1 | 3 | COc1c(F)cc(CN2CCN(C3CC4(CCN(c5ccc(C(=O)NS(=O)(=O)c6cnc(NC[C@H]7CC[C@](C)(O)CC7)c([N+](=O)[O-])c6)c(Oc6cnc7[nH]cc(F)c7c6)c5)CC4)C3)[C@H](c3ccccc3C(C)C)C2)cc1F [Example 248, 4-(2-((R)-4-(3,5-difluoro-4-methoxybenzyl)-2-(2-isopropylphenyl)piperazin-1-yl)-7-azaspiro[3.5]nonan-7-yl)-2-((3-fluoro-1H-pyrrolo[2,3-b]pyridin-5-yl)oxy)-N-((6-((((1r,4r)-4-hydroxy-4-methylcyclohexyl)methyl)amino)-5-nitropyridin-3-yl)sulfonyl)benzamide] | 1
– | 1 | 1 | COc1ccc(CN2CCN(C3CC4(CCN(c5ccc(C(=O)NS(=O)(=O)c6cnc(NC[C@H]7CC[C@](C)(O)CC7)c([N+](=O)[O-])c6)c(Oc6cnc7[nH]cc(F)c7c6)c5)CC4)C3)[C@H](c3ccccc3C(C)C)C2)cn1 [Example 252, 2-((3-fluoro-1H-pyrrolo[2,3-b]pyridin-5-yl)oxy)-N-((6-((((1r,4r)-4-hydroxy-4-methylcyclohexyl)methyl)amino)-5-nitropyridin-3-yl)sulfonyl)-4-(2-((R)-2-(2-isopropylphenyl)-4-((6-methoxypyridin-3-yl)methyl)piperazin-1-yl)-7-azaspiro[3.5]nonan-7-yl)benzamide] | 1
